In patent US20060210620A1, “Co-precipitated amorphous losartan and dosage forms comprising the same” (priority 2003, published 2006):

Experiment: Accelerated stability testing at 40° C. and 75% relative humidity, solid form evaluated by X-ray diffraction
Type: physicochemical
Conditions: storage time not stated (spectra taken later in time, FIG. 1)
Procedure: The term “stable” as used herein refers to less than about 5% conversion of the amorphous form of losartan to a crystalline form of losartan when stored at 40° C. and 75 percent relative humidity for three months.
The amorphous solids of the following examples were evaluated for the presence of crystals and/or other degradative products using X-ray diffraction (XRD) techniques, supplemented with infrared and differential scanning calorimetry. The examples are meant to further exemplify the invention and are not intended to limit the scope of the invention.

SMILES: CCCCc1nc(Cl)c(CO)n1Cc1ccc(-c2ccccc2-c2nn[nH]n2)cc1 [Example 1, losartan potassium]
- Solid form (amorphous/crystalline) by XRD after accelerated stability conditions: almost all of the solid material converted to the crystalline form
